Measured values from patent US7795294B2, “Tetrahydro-2H-indazole pyrazole cannabinoid modulators” (Janssen Pharmaceutica N.V., priority 2006, dated 2010).
pIC50: −log10 of the molar value.

Assays:
[1] = biological target: T1, human CB2 receptor (Homo sapiens, UniProt P34972); test: Binding assay for CB2 agonists or inverse agonists, [3H]-CP-55,940 displacement on membranes of transfected SK-N-MC cells
T1 construct: expressed in transfected cells; host or cells: SK-N-MC cells, stably transfected with pcDNA3 CB-2 (human); semi-purified membrane pellet
Description: (§1) The human CB1 and CB2 receptors were stably expressed in SK-N-MC cells transfected with pcDNA3 CB-1 (human) or pcDNA3 CB-2 (human). The cells were grown in T-180 cell culture flasks under standard cell culture conditions at 37° C. in a 5% CO2 atmosphere. The cells were harvested by trysinization and homogenized in a homogenization buffer (10 mM Tris, 0.2 mM MgCl2, 5 mM KCl, with protease inhibitors aprotinin, leupeptin, pepstatin A and bacitracin) and centrifuged (2000 g). The supernatant was then centrifuged in 2M sucrose (31,300 g) to produce a semi-purified membrane pellet. The pellet was resuspended in homogenization and stored at −80° C.
(§2) On the day of the assay, the pellet was thawed on ice and diluted in assay buffer (50 mM Tris-HCl, 5 mM MgCl2, 2.5 mM EDTA, 0.5 mg/mL fatty acid free bovine serum albumin, pH 7.5). […] The plate was covered and incubated for 90 minutes at 30° C. The contents were then aspirated onto a Packard Unifilter GF/C filter bottom plate prewet with 0.5% polyethyleneimine. The wells of the polypropylene plate were rinsed and aspirated seven times with a 0.9% saline-0.5% Tween 20 solution. The Unifilter plate was dried, a scintillation cocktail was added to each well and the counts representing binding were quantitated in a TopCount scintillation counter.
(§3) For compounds tested, an IC50 binding value was obtained from percent inhibition studies in which various test concentrations were used. The binding value was calculated by linear regression. An average value is shown for those compounds where two or more IC50 values were obtained.
(§4) An average value is shown for those compounds where two or more percent inhibition values were obtained.

[2] = biological target: T2, human CB1 receptor (Homo sapiens, UniProt P21554); test: Binding assay for CB1 agonists or inverse agonists, [3H]-CP-55,940 displacement on membranes of transfected SK-N-MC cells
T2 construct: expressed in transfected cells; host or cells: SK-N-MC cells, stably transfected with pcDNA3 CB-1 (human); semi-purified membrane pellet
Description: as §1, §2, §3, §4

T2 sequence (P21554 whole entry): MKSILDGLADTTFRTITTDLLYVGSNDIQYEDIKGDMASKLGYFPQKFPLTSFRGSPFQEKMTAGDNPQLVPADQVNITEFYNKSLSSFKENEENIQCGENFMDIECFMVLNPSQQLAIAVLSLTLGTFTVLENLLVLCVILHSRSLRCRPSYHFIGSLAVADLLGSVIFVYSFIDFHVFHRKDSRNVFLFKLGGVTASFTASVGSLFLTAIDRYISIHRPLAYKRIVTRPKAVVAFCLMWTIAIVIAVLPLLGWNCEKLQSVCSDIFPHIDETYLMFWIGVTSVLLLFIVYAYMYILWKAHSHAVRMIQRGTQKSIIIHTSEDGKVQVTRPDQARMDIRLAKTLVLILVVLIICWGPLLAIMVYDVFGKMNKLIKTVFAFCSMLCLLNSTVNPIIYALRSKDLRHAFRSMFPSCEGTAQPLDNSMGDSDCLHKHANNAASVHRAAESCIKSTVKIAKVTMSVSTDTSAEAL
T1 sequence (P34972 whole entry): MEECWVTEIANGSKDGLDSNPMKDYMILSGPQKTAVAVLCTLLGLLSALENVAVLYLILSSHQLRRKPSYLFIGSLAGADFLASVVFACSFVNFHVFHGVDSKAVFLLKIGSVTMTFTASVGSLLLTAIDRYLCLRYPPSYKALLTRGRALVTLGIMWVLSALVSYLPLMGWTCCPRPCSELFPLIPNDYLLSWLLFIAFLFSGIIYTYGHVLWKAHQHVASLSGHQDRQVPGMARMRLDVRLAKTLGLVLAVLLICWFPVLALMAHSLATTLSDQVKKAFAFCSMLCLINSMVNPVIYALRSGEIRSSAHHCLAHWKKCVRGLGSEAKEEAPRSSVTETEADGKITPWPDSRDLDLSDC

In the case of `C[C@@H](NC(=O)[C@H]1CCCc2c1nn(-c1ccc(Cl)cc1Cl)c2-c1ccc(F)cc1)c1ccccc1` [Cpd 37, (7S)-2-(2,4-dichloro-phenyl)-3-(4-fluoro-phenyl)-4,5,6,7-tetrahydro-2H-indazole-7-carboxylic acid [(1R)-1-phenyl-ethyl]-amide], the inhibition at 0.2 µM ([1]; read-out: Cannabinoid CB2 Receptor Binding percent inhibition) was 4% and the inhibition at 0.2 µM ([2]; read-out: Cannabinoid CB1 Receptor Binding percent inhibition) was 50%.

`CC(NC(=O)C1CCCc2c1nn(Cc1ccccc1)c2-c1ccc(Cl)cc1)C1CCCCC1` (stereo not shown) [Cpd 5, 2-benzyl-3-(4-chloro-phenyl)-4,5,6,7-tetrahydro-2H-indazole-7-carboxylic acid (1-cyclohexyl-ethyl)-amide] gave a pIC50 [1] of 5.21 and a pIC50 [2] of 6.15.
